This is an account of results in ChEMBL document CHEMBL1126895, “Aminoacyl analogs of chloramphenicol: examination of the kinetics of inhibition of peptide bond formation” (J Med Chem, 1993).

In the assay the test system is Escherichia coli. Kind of assay: Tested for inhibition of puromycin reaction and reported as equilibrium constant derived from primary and secondary kinetic plots for the inhibition of peptide bond formation. The assay is classed as functional.

As usually defined, the Ki is the equilibrium dissociation constant of an inhibitor or competing ligand from its target. Compound `NC(Cc1ccccc1)C(=O)NCC(=O)NC(CO)C(O)c1ccc([N+](=O)[O-])cc1` (stereo unspecified) gave a Ki of 1500 nM.
`NC(Cc1ccccc1)C(=O)NC(CO)C(O)c1ccc([N+](=O)[O-])cc1` (stereo unspecified): the Ki turned out to be 18000 nM.
Under `NCC(=O)NC(CO)C(O)c1ccc([N+](=O)[O-])cc1` (stereo unspecified) stands 5500 nM; under `O=C(N[C@H](CO)[C@H](O)c1ccc([N+](=O)[O-])cc1)C(Cl)Cl` [CHLORAMPHENICOL], 700 nM.
In turn, `NS(=O)(=O)c1ccc([C@@H](O)[C@@H](CO)NC(=O)C(Cl)Cl)cc1` [TEVENEL] had a Ki of 1700 nM.
In the case of `CS(=O)(=O)c1ccc([C@@H](O)[C@@H](CO)NC(=O)C(Cl)Cl)cc1` [THIAMPHENICOL], the inhibition constant Ki came to 400 nM. This Ki lies about 4.2-fold lower than the previous one.
